The source of these data is US20220010279A1, “KITS AND METHODS FOR PERFORMING OPTICAL DYNAMIC CLAMP ON EXCITABLE CELLS” (CORNELL UNIVERSITY, priority 2018, published 2022).

This assay deals with iPSC-CMs. Description: Paced action potentials (perforated patch clamp; control, EDC or ODC with added IK1) after E-4031 addition. The settings on record: for APD90 after E-4031 addition: 500 nM E-4031 perfused 2 minutes, all cells, FIG. 7A. It counts as cell-based, human. The procedure:
Cor.4U hiPSC-CMs (Axiogenesis, Cologne, Germany) were thawed, seeded, and maintained according to the protocols provided by the manufacturer. The cells were seeded on 0.5% gelatin-coated 8 mm coverslips and plated at 100,000 cells/mL. Cells were incubated for at least 7 days post thaw prior to use for experiments.
Adenoviral vector was constructed using the Addgene (Cambridge, Mass.) plasmid pAAV-CAG-ArchT-GFP, deposited by K. Deisseroth's laboratory (plasmid 20940) (Ambrosi C M, et al. Methods Mol Biol. 2014, 1181:215-28; Yu J, et al. Methods Mol Biol. 2016, 1408:303-17). ArchT was expressed in iPSC-CMs using MOIs of 250-300, as described in previously published protocols using an adenovirus (Ambrosi C M, et al. Methods Mol Biol. 2014, 1181:215-28; Yu J, et al. Methods Mol Biol. 2016, 1408:303-1). Determination of successful infection was confirmed via eGFP fluorescence. Functionality of ArchT was confirmed by illuminating the cells with an LED (M565L3, ThorLabs) at 595 nm through a 40× objective and observing the amount of hyperpolarization of the membrane potential under current clamp. Stability of IArchT was measured with a voltage and light clamp protocol over time to investigate rundown with ArchT illumination (FIGS. 18A-18B).
Borosilicate glass pipettes were pulled to a resistance of 1-3 MΩ using a flaming/brown micropipette puller (Model P-1000, Sutter Instrument). The pipettes were filled with intracellular solution containing (mM) 10 NaCl, 130 KCl, 1 MgCl2, 10 CaCl2, 5.5 Dextrose, 10 HEPES. For perforated patch, the pipette was first backfilled by dipping the pipette tip into the intracellular solution for 10 seconds. Only the very tip contained the intracellular solution without any gramicidin to minimize the amount of gramicidin exiting the pipette prior to obtaining a giga-ohm seal. The pipette was then filled with the intracellular solution containing 8 μg/mL gramicidin passed through a 0.25 μm filter. […] The high calcium concentration in the intracellular pipette solution serves to verify the integrity of the patch as patch rupture under these conditions would lead to immediate cell contracture (Ishihara K, et al. J Physiol. 2004, 540(3):831-41). The coverslips containing iPSC-CMs were placed in the bath and constantly perfused with an extracellular solution at 37° C. containing (mM) 137 NaCl, 5.4 KCl, 1 MgSO4, 2 CaCl2, 10 Dextrose, 10 HEPES. GFP-expressing single cells that were visibly contracting were chosen for experiments. Patch-clamp measurements were made by a patch-clamp amplifier (Model 2400, A-M Systems, Inc) controlled by the Real Time eXperiment Interface (RTXI) to coordinate the amplifier via the data acquisition card (PCI-6025E, National Instruments). The voltage was corrected for the calculated liquid junction potential of −2.8 mV. RTXI was also used to control the LED light intensity. The series resistance was less than 10 MΩ and was not compensated.
To test the feasibility of using ArchT to inject a target current, stimulated action potentials under the EDC system were compared to those of the ODC platform at three different pacing frequencies: 0.5, 1 and 2 Hz. The cells were stimulated 10 times at 0.5, 1 and 2 Hz sequentially under three conditions (the order of which was randomized): (A) control, in which no additional current was added, (B) addition of Itarget with EDC, and (C) and addition of Itarget with ODC.
After the cells had undergone the aforementioned pacing protocol under the same three conditions, 500 nM E-4031 (a class III antiarrhythmic drug that blocks potassium channels, primarily of the human ether-a-go-go related gene (hERG) type) was perfused into the bath containing the coverslip of iPSC-CMs for 2 minutes. Experiments were again conducted under the same pacing protocol and conditions to measure the effect of IKr inhibition. […]
A general note: The patch-clamp technique gives a direct electrical read-out from membranes.

For `Cc1cccc(CCN2CCC(C(=O)c3ccc(NS(C)(=O)=O)cc3)CC2)n1` [E-4031], the “APD with E-4031 addition” value (500 nM E-4031, example cell 13 paced at 0.5 Hz, control, EDC and ODC conditions, FIG. 6A-C) is “increases”. For the same compound, the “drug-induced APD prolongation, control (without dynamic clamp) cells compared to EDC and ODC” value (500 nM E-4031, paced at 0.5 Hz) is “more dramatic”. Where the note is “500 nM E-4031, paced at 0.5 Hz”, the “triangulation (APD90-APD30), control (without dynamic clamp) cells compared to EDC and ODC” value was “larger”. The “APD90 after E-4031 addition” value reads like this: (paced at 0.5 Hz, Itarget (IK1) added with EDC) “increased”; (paced at 0.5 Hz, Itarget (IK1) added with ODC) “increased”; (paced at 0.5 Hz, control (no current addition)) “increased”.
